The text below walks through data of patent US8846928B2 (Portola Pharmaceuticals, Inc., priority 2010, dated 2014).

For orientation: IC50 means the midpoint of a concentration-inhibition curve.

The assay addresses T1, full length active recombinant SYK enzyme (Homo sapiens, UniProt P43405).
T1 construct: full length active recombinant SYK enzyme (Millipore, Calif.); purchased Millipore
Kind of assay: Inhibition of Syk tyrosine phosphorylation activity (LANCE TR-FRET kinase assay). The assay is classed as biochemical. In general terms: TR-FRET usually uses a lanthanide donor and a delayed reading to cut background.
Take `NC(=O)c1cc(F)c(N[C@@H]2CCCC[C@@H]2N)nc1Nc1ccc(-n2cccc2)cc1` [Example 188, 2-(4-(1H-pyrrol-1-yl)phenylamino)-6-((1R,2S)-2-aminocyclohexylamino)-5-fluoronicotinamide]: the IC50 is 1 to 10 nM. Regarding `NC(=O)c1cc(F)c(N[C@@H]2CCCC[C@@H]2N)nc1Nc1cccc(-c2nccs2)c1` [Example 189, 6-((1R,2S)-2-aminocyclohexylamino)-5-fluoro-2-(3-(thiazol-2-yl)phenylamino)nicotinamide], the IC50 fell in the range of 1 to 10 nM. To `NC(=O)c1cc(F)c(N[C@@H]2CCCC[C@@H]2N)nc1Nc1ccnc(-n2cccn2)c1` [Example 190, 2-(2-(1H-pyrazol-1-yl)pyridin-4-ylamino)-6-((1R,2S)-2-aminocyclohexylamino)-5-fluoronicotinamide] belongs 10 to 100 nM; to `NC(=O)c1ccc(N[C@@H]2CCCC[C@@H]2N)nc1Nc1cccc(-n2cccn2)c1` [Example 192, 2-(3-(1H-pyrazol-1-yl)phenylamino)-6-((1R,2S)-2-aminocyclohexylamino)nicotinamide], 1 to 10 nM; to `NC(=O)c1cc(F)c(N[C@@H](C(N)=O)C2CC2)nc1Nc1cnc2ccccc2c1` [Example 196, (R)-6-(2-amino-1-cyclopropyl-2-oxoethylamino)-5-fluoro-2-(quinolin-3-ylamino)nicotinamide], 10 to 100 nM. Under `Cc1cc(Nc2nc(N[C@@H](C(N)=O)C3CC3)c(F)cc2C(N)=O)sn1` [Example 198, (R)-6-(2-amino-1-cyclopropyl-2-oxoethylamino)-5-fluoro-2-(3-methylisothiazol-5-ylamino)nicotinamide] stands 10 to 100 nM; under `CCC[C@@H](Nc1nc(Nc2cnc3ccccc3c2)c(C(N)=O)cc1F)C(N)=O` [Example 199, (R)-6-(1-amino-1-oxopentan-2-ylamino)-5-fluoro-2-(quinolin-3-ylamino)nicotinamide], 1 to 10 nM. Under `CCC[C@@H](Nc1nc(Nc2ccc3ncccc3c2)c(C(N)=O)cc1F)C(N)=O` [Example 200] stands 10 to 100 nM; under `CCC[C@@H](Nc1nc(Nc2ccc3cccnc3c2)c(C(N)=O)cc1F)C(N)=O` [Example 201, (R)-6-(1-amino-1-oxopentan-2-ylamino)-5-fluoro-2-(quinolin-7-ylamino)nicotinamide], 100 to 1000 nM. Turning to `CCC[C@@H](Nc1nc(Nc2cc(C)ns2)c(C(N)=O)cc1F)C(N)=O` [Example 202, (R)-6-(1-amino-1-oxopentan-2-ylamino)-5-fluoro-2-(3-methylisothiazol-5-ylamino)nicotinamide], the IC50 fell in the range of 10 to 100 nM. Regarding `CC[C@@H](Nc1ccc(C(N)=O)c(Nc2cnc3ccccc3c2)n1)C(N)=O` [Example 203, (R)-6-(1-amino-1-oxobutan-2-ylamino)-2-(quinolin-3-ylamino)nicotinamide], the IC50 lay within 1 to 10 nM. For `CC[C@@H](Nc1ccc(C(N)=O)c(Nc2ccc3cccnc3c2)n1)C(N)=O` [Example 204, (R)-6-(1-amino-1-oxobutan-2-ylamino)-2-(quinolin-7-ylamino)nicotinamide], the IC50 lay within 10 to 100 nM.

As for `CC[C@@H](Nc1ccc(C(N)=O)c(Nc2ccc3ncccc3c2)n1)C(N)=O` [Example 205, (R)-6-(1-amino-1-oxobutan-2-ylamino)-2-(quinolin-6-ylamino)nicotinamide], the IC50 lay within 1 to 10 nM. To `CC[C@@H](Nc1ccc(C(N)=O)c(Nc2ccc3ncsc3c2)n1)C(N)=O` [Example 206, (R)-6-(1-amino-1-oxobutan-2-ylamino)-2-(benzo[d]thiazol-6-ylamino)nicotinamide] belongs 10 to 100 nM; to `CC[C@@H](Nc1ccc(C(N)=O)c(Nc2ccc3scnc3c2)n1)C(N)=O` [Example 207, (R)-6-(1-amino-1-oxobutan-2-ylamino)-2-(benzo[d]thiazol-5-ylamino)nicotinamide], 10 to 100 nM. Consider `CC[C@@H](Nc1ccc(C(N)=O)c(Nc2ccc3c(ccn3C)c2)n1)C(N)=O` [Example 208, (R)-6-(1-amino-1-oxobutan-2-ylamino)-2-(1-methyl-1H-indol-5-ylamino)nicotinamide], for which the IC50 fell in the range of 10 to 100 nM. As to `CC[C@@H](Nc1ccc(C(N)=O)c(Nc2cccc3c2ccn3C)n1)C(N)=O` [Example 209, (R)-6-(1-amino-1-oxobutan-2-ylamino)-2-(1-methyl-1H-indol-4-ylamino)nicotinamide], the IC50 was in the range of 10 to 100 nM.

Turning to `CC[C@@H](Nc1ccc(C(N)=O)c(Nc2cc(C)ns2)n1)C(N)=O` [Example 210], the IC50 lay within 10 to 100 nM.

With `Cc1cc(Nc2nc(N[C@H](CC3CC3)C(N)=O)ccc2C(N)=O)sn1` [Example 211, (R)-6-(1-amino-3-cyclopropyl-1-oxopropan-2-ylamino)-2-(3-methylisothiazol-5-ylamino)nicotinamide], the IC50 was 10 to 100 nM. Under `NC(=O)c1ccc(N[C@H](CC2CC2)C(N)=O)nc1Nc1cnc2ccccc2c1` [Example 212, (R)-6-(1-amino-3-cyclopropyl-1-oxopropan-2-ylamino)-2-(quinolin-3-ylamino)nicotinamide] stands 1 to 10 nM; under `NC(=O)c1ccc(N[C@H](CC2CC2)C(N)=O)nc1Nc1ccc2ncccc2c1` [Example 213, (R)-6-(1-amino-3-cyclopropyl-1-oxopropan-2-ylamino)-2-(quinolin-6-ylamino)nicotinamide], 1 to 10 nM. To `NC(=O)c1ccc(N[C@H](CC2CC2)C(N)=O)nc1Nc1ccc2cccnc2c1` [Example 214, (R)-6-(1-amino-3-cyclopropyl-1-oxopropan-2-ylamino)-2-(quinolin-7-ylamino)nicotinamide] belongs 10 to 100 nM; to `Cc1cc(Nc2cc(N[C@@H](C(N)=O)C3CC3)c(F)cc2C(N)=O)sn1` [Example 215, (R)-4-(2-amino-1-cyclopropyl-2-oxoethylamino)-5-fluoro-2-(3-methylisothiazol-5-ylamino)benzamide], 10 to 100 nM; to `CC[C@@H](Nc1nc(Nc2cnc3ccccc3c2)c(C(N)=O)cc1F)C(N)=O` [Example 227, (R)-6-(1-amino-1-oxobutan-2-ylamino)-5-fluoro-2-(quinolin-3-ylamino)nicotinamide], 10 to 100 nM.

On to `CC[C@@H](Nc1nc(Nc2cnc3ncccc3c2)c(C(N)=O)cc1F)C(N)=O` [Example 228, (R)-6-(1-amino-1-oxobutan-2-ylamino)-5-fluoro-2-(1,8-naphthyridin-3-ylamino)nicotinamide], for which the IC50 is 10 to 100 nM.

In the case of `CC[C@@H](Nc1nc(Nc2ccc3nccn3c2)c(C(N)=O)cc1F)C(N)=O` [Example 229, (R)-6-(1-amino-1-oxobutan-2-ylamino)-5-fluoro-2-(H-imidazo[1,2-a]pyridin-6-ylamino)nicotinamide], the IC50 was 10 to 100 nM. For the molecule `CC[C@@H](Nc1nc(Nc2ccn3ccnc3c2)c(C(N)=O)cc1F)C(N)=O` [Example 230, (R)-6-(1-amino-1-oxobutan-2-ylamino)-5-fluoro-2-(H-imidazo[1,2-a]pyridin-7-ylamino)nicotinamide], the IC50 was 100 to 1000 nM. `CC[C@@H](Nc1nc(Nc2cccc(OC)c2)c(C(N)=O)cc1F)C(N)=O` [Example 231, (R)-6-(1-amino-1-oxobutan-2-ylamino)-5-fluoro-2-(3-methoxyphenylamino)nicotinamide]: the half-maximal inhibitory concentration (IC50) fell in the range of 10 to 100 nM. In the case of `CC[C@@H](Nc1nc(Nc2cncc(OC)c2)c(C(N)=O)cc1F)C(N)=O` [Example 232, (R)-6-(1-amino-1-oxobutan-2-ylamino)-5-fluoro-2-(5-methoxypyridin-3-ylamino)nicotinamide], the half-maximal inhibitory concentration (IC50) was in the range of 100 to 1000 nM. For the molecule `CC[C@@H](Nc1nc(Nc2ccc3ccccc3c2)c(C(N)=O)cc1F)C(N)=O` [Example 233, (R)-6-(1-amino-1-oxobutan-2-ylamino)-5-fluoro-2-(naphthalen-2-ylamino)nicotinamide], the IC50 was in the range of 1 to 10 nM.

On to `CC[C@@H](Nc1nc(Nc2ccc3ncsc3c2)c(C(N)=O)cc1F)C(N)=O` [Example 234, (R)-6-(1-amino-1-oxobutan-2-ylamino)-5-fluoro-2-(benzo[d]thiazol-6-ylamino)nicotinamide], for which the IC50 lay in the range of 10 to 100 nM. Turning to `CC[C@@H](Nc1nc(Nc2cncc(C)c2)c(C(N)=O)cc1F)C(N)=O` [Example 235, (R)-6-(1-amino-1-oxobutan-2-ylamino)-5-fluoro-2-(5-methylpyridin-3-ylamino)nicotinamide], the IC50 is 10 to 100 nM. Consider `CC[C@@H](Nc1nc(Nc2cnc3cccnc3c2)c(C(N)=O)cc1F)C(N)=O` [Example 236, (R)-6-(1-amino-1-oxobutan-2-ylamino)-5-fluoro-2-(1,5-naphthyridin-3-ylamino)nicotinamide], for which the IC50 is 100 to 1000 nM. Regarding `CC[C@@H](Nc1nc(Nc2ccc3c(c2)OCO3)c(C(N)=O)cc1F)C(N)=O` [Example 237, (R)-6-(1-amino-1-oxobutan-2-ylamino)-5-fluoro-2-(benzo[d][1,3]dioxol-5-ylamino)nicotinamide], the IC50 lay in the range of 100 to 1000 nM. For `CC[C@@H](Nc1nc(Nc2cc(C)ns2)c(C(N)=O)cc1F)C(N)=O` [Example 239, (R)-6-(1-amino-1-oxobutan-2-ylamino)-5-fluoro-2-(3-methylisothiazol-5-ylamino)nicotinamide], the IC50 was 10 to 100 nM.

On to `CC[C@@H](Nc1nc(Nc2cccc3c2cnn3C)c(C(N)=O)cc1F)C(N)=O` [Example 240, (R)-6-(1-amino-1-oxobutan-2-ylamino)-5-fluoro-2-(1-methyl-1H-indazol-4-ylamino)nicotinamide], for which the IC50 fell in the range of 100 to 1000 nM. To `CC[C@@H](Nc1nc(Nc2ccc3c(cnn3C)c2)c(C(N)=O)cc1F)C(N)=O` [Example 241, (R)-6-(1-amino-1-oxobutan-2-ylamino)-5-fluoro-2-(1-methyl-1H-indazol-5-ylamino)nicotinamide] belongs 10 to 100 nM; to `CC[C@@H](Nc1nc(Nc2ccnc3ccccc23)c(C(N)=O)cc1F)C(N)=O` [Example 242, (R)-6-(1-amino-1-oxobutan-2-ylamino)-5-fluoro-2-(quinolin-4-ylamino)nicotinamide], 10 to 100 nM.
